≈ marks a conversion by molar mass, not a printed value. Square brackets hold non-standard residues; d marks the D form. Peptide text beside a SMILES is read from it.
Tests used:
[1] = system: Acinetobacter baumannii clinical strains; format: cell-based; settings: clinical strains
Procedure: (§1) Minimum inhibition concentrations (MICs) were determined against Escherichia coli (ATCC 25922), Staphylococcus aureus (ATCC 25923), Klebsiella pneumoniae (ATCC 10031) and Pseudomonas aeruginosa (ATCC 27853). Also clinical strains of E. coli, K. pneumoniae, E. cloacae, P. aeruginosa, Serratia marcescens, Proteus mirabilis, S. pneumoniae, Acinetobacter baumannii, A. johnsonii and S. aureus were used for MICs assays. Additionally, clinical strains of yeast including Candida albicans, C. glabrata, C. parapsilosis and C. quillermondiae were used. The susceptibility of these microorganisms to Chain peptides were determined using micro broth dilution assay. Colonies of the respective microorganism from Muller Hinton (MH) agar plates incubated overnight were suspended in MH broth media and final concentration of microorganism was adjusted to 5.0×10^5 cfu/ml. An aliquot of 10 μl of each Chain peptide, or gentamicin, tetracycline as reference antibiotics were added in differing concentrations along with 90 μl of bacterial suspension to 96 well polypropylene plates and incubated at 37° C. for 20 to 24 hours. Concentrations of Chain peptides and reference antibiotics ranged from 0.125 to 128 μg/ml and the MICs were recorded as the lowest concentration with no visual growth of bacteria. Similarly, antifungal MICs were tested in Potato dextrose broth.
(§2) Clinical strains of yeasts including Candida albicans, C. glabrata, C. parapsilosis and C. quillermondiae were also tested with the 12 Chain peptides. The minimum inhibitory concentration (MICs) varied between these peptides and are presented in Tables 4a, 4b, 4c and 5a, 5b, 5c. Peptides Chain 105, 201 and 308 are broad spectrum antimicrobials with MICs between 0.5-32 μg/ml against all the bacteria and yeasts tested, except Serratia marcescens and Proteus mirabilis, against which the MICs were between 64-128 μg/ml. Peptide Chain 306 has narrow spectrum activity against E. coli at 1 μg/ml and for the rest of the bacterial strains at >32 μg/ml (FIG. 10c).

[2] = system: Enterobacter cloacae clinical strains; format: cell-based; settings: clinical strains
Procedure: as §1, §2

[3] = system: Proteus mirabilis clinical strains; format: cell-based; settings: clinical strains
Procedure: as §1, §2

[4] = system: Serratia marcescens clinical strains; format: cell-based; settings: clinical strains
Procedure: as §1, §2

[5] = system: Staphylococcus aureus clinical strains; format: cell-based; settings: clinical strains
Procedure: as §1, §2

[6] = system: Streptococcus pneumoniae clinical strains; format: cell-based; settings: clinical strains
Procedure: as §1, §2

[7] = system: Candida albicans clinical strains; assay: MIC, clinical yeast strains; format: cell-based; set-up: unit: μg/ml
Procedure: as §1, §2

[8] = system: C. glabrata clinical strains; assay: MIC, clinical yeast strains; format: cell-based, Candida glabrata; set-up: unit: µg/ml
Procedure: as §1, §2

[9] = system: C. parapsilosis clinical strains; assay: MIC, clinical yeast strains; format: cell-based, Candida parapsilosis; set-up: unit: µg/ml
Procedure: as §1, §2

[10] = system: C. quillermondiae clinical strains; assay: MIC, clinical yeast strains; format: cell-based, Candida quillermondiae; set-up: unit: μg/ml; settings: C. quillermondiae clinical yeast strain 1
Procedure: as §1, §2

[11] = system: Acinetobacter johnsonii clinical strains; format: cell-based; settings: clinical strain 1; D-form peptides; MH broth-cation adjusted, 0.02% BSA, 0.2% acetic acid
Procedure: as §1, §2

[12] = system: Escherichia coli clinical strains; format: cell-based; settings: clinical strains
Procedure: as §1, §2

[13] = system: Klebsiella pneumoniae clinical strains; format: cell-based; settings: clinical strains
Procedure: as §1, §2

[14] = system: Pseudomonas aeruginosa clinical strains; format: cell-based; settings: clinical strains
Procedure: as §1, §2

In the case of `CC[C@@H](C)[C@@H](NC(=O)[C@@H](CCSC)NC(=O)[C@@H](C)NC(=O)[C@@H](CCCNC(=N)N)NC(=O)[C@@H](Cc1c[nH]c2ccccc12)NC(=O)[C@@H](CCCCN)NC(=O)[C@H](N)CCCNC(=N)N)C(=O)N[C@H](CCCNC(=N)N)C(=O)N[C@H](CC(C)C)C(=O)N[C@H](Cc1c[nH]cn1)C(=O)N[C@H](C)C(=O)N[C@H](CCCCN)C(=O)N[C@H](CCCNC(=N)N)C(=O)N[C@H](CC(C)C)C(=O)N[C@H](CCCNC(=N)N)C(=O)N[C@H](CCCCN)C(=O)O` [Chain104D] (H-[dR][dK][dW][dR][dA][dM][dI][dR][dL][dH][dA][dK][dR][dL][dR][dK]-OH), the “MIC, Acinetobacter baumannii strain 1” value [1] is reported as 16 µg/mL (≈ 7.55 µM), the “MIC, Acinetobacter baumannii strain 2” value [1] is reported as 8 µg/mL (≈ 3.77 µM) and the “MIC, Acinetobacter baumannii strain 3” value [1] is reported as 8 µg/mL (≈ 3.77 µM). The “MIC, Acinetobacter baumannii strain 4” value [1] was 4 µg/mL (≈ 1.89 µM), the “MIC, Acinetobacter baumannii strain 5” value [1] was 8 µg/mL (≈ 3.77 µM) and the “MIC, Enterobacter cloacae strain 1” value [2] was 4 µg/mL (≈ 1.89 µM). For the same molecule, the “MIC, Enterobacter cloacae strain 2” value [2] was 4 µg/mL (≈ 1.89 µM), the “MIC, Enterobacter cloacae strain 3” value [2] was 8 µg/mL (≈ 3.77 µM) and the “MIC, Enterobacter cloacae strain 4” value [2] was 4 µg/mL (≈ 1.89 µM). For the same molecule, the “MIC, Enterobacter cloacae strain 5” value [2] was 2 µg/mL (≈ 0.944 µM), the “MIC, Proteus mirabilis strain 1” value [3] was greater than 128 µg/mL and the “MIC, Proteus mirabilis strain 2” value [3] was 32 µg/mL (≈ 15.1 µM). The “MIC, Proteus mirabilis strain 3” value [3] was 128 µg/mL (≈ 60.4 µM), the “MIC, Proteus mirabilis strain 4” value [3] was greater than 128 µg/mL and the “MIC, Proteus mirabilis strain 5” value [3] was greater than 128 µg/mL. For the same molecule, the “MIC, Serratia marcescens strain 1” value [4] was greater than 128 µg/mL, the “MIC, Serratia marcescens strain 2” value [4] was greater than 128 µg/mL and the “MIC, Serratia marcescens strain 3” value [4] was greater than 128 µg/mL. For the same molecule, the “MIC, Serratia marcescens strain 4” value [4] was greater than 128 µg/mL, the “MIC, Serratia marcescens strain 5” value [4] was 128 µg/mL (≈ 60.4 µM) and the “MIC, Staphylococcus aureus strain 1” value [5] was 4 µg/mL (≈ 1.89 µM). The “MIC, Staphylococcus aureus strain 2” value [5] was 2 µg/mL (≈ 0.944 µM), the “MIC, Staphylococcus aureus strain 3” value [5] was 4 µg/mL (≈ 1.89 µM) and the “MIC, Staphylococcus aureus strain 4” value [5] was 2 µg/mL (≈ 0.944 µM). For the same molecule, the “MIC, Staphylococcus aureus strain 5” value [5] was 4 µg/mL (≈ 1.89 µM), the “MIC, Streptococcus pneumoniae strain 1” value [6] was 4 µg/mL (≈ 1.89 µM) and the “MIC, Streptococcus pneumoniae strain 2” value [6] was 2 µg/mL (≈ 0.944 µM). For the same molecule, the “MIC, Streptococcus pneumoniae strain 3” value [6] was 1 µg/mL (≈ 0.472 µM), the “MIC, Streptococcus pneumoniae strain 4” value [6] was 4 µg/mL (≈ 1.89 µM) and the “MIC, Streptococcus pneumoniae strain 5” value [6] was 1 µg/mL (≈ 0.472 µM). The Minimum inhibitory concentration ([7]; Candida albicans clinical yeast strain 1) was 8, the Minimum inhibitory concentration ([7]; Candida albicans clinical yeast strain 2) was 8 and the Minimum inhibitory concentration ([7]; Candida albicans clinical yeast strain 3) was 8. The Minimum inhibitory concentration ([7]; Candida albicans clinical yeast strain 4) was 8, the Minimum inhibitory concentration ([7]; Candida albicans clinical yeast strain 5) was 8 and the Minimum inhibitory concentration ([8]; C. glabrata clinical yeast strain 1) was 8. It also gave a Minimum inhibitory concentration ([8]; C. glabrata clinical yeast strain 2) of 8, a Minimum inhibitory concentration ([8]; C. glabrata clinical yeast strain 3) of 8 and a Minimum inhibitory concentration ([8]; C. glabrata clinical yeast strain 4) of 16. For the same molecule, the Minimum inhibitory concentration ([9]; C. parapsilosis clinical yeast strain 1) was 4, the Minimum inhibitory concentration ([9]; C. parapsilosis clinical yeast strain 2) was 4 and the Minimum inhibitory concentration ([9]; C. parapsilosis clinical yeast strain 3) was 4. The Minimum inhibitory concentration ([9]; C. parapsilosis clinical yeast strain 4) was 2, the Minimum inhibitory concentration [10] was 4 and the “MIC, Acinetobacter johnsonii strain 1” value [11] was 8 µg/mL (≈ 3.77 µM). For the same molecule, the “MIC, Escherichia coli strain 1” value [12] was 4 µg/mL (≈ 1.89 µM), the “MIC, Escherichia coli strain 2” value [12] was 4 µg/mL (≈ 1.89 µM) and the “MIC, Escherichia coli strain 3” value [12] was 4 µg/mL (≈ 1.89 µM). For the same molecule, the “MIC, Escherichia coli strain 4” value [12] was 4 µg/mL (≈ 1.89 µM), the “MIC, Escherichia coli strain 5” value [12] was 4 µg/mL (≈ 1.89 µM) and the “MIC, Klebsiella pneumoniae strain 1” value [13] was 8 µg/mL (≈ 3.77 µM). The “MIC, Klebsiella pneumoniae strain 2” value [13] was 4 µg/mL (≈ 1.89 µM), the “MIC, Klebsiella pneumoniae strain 3” value [13] was 8 µg/mL (≈ 3.77 µM) and the “MIC, Klebsiella pneumoniae strain 4” value [13] was 16 µg/mL (≈ 7.55 µM). The “MIC, Klebsiella pneumoniae strain 5” value [13] was 4 µg/mL (≈ 1.89 µM), the “MIC, Pseudomonas aeruginosa strain 1” value [14] was 4 µg/mL (≈ 1.89 µM) and the “MIC, Pseudomonas aeruginosa strain 2” value [14] was 2 µg/mL (≈ 0.944 µM). For the same molecule, the “MIC, Pseudomonas aeruginosa strain 3” value [14] was 4 µg/mL (≈ 1.89 µM), the “MIC, Pseudomonas aeruginosa strain 4” value [14] was 2 µg/mL (≈ 0.944 µM) and the “MIC, Pseudomonas aeruginosa strain 5” value [14] was 1 µg/mL (≈ 0.472 µM).

Reference: patent publication US10457709B2, “Antimicrobial peptides, their variants and uses” (priority 2015, dated 2019)
